target: T1, SMBS on rat lung membranes (Rattus norvegicus, UniProt A0A8I6A822); assay: Receptor binding of the compound in rat lung membranes ([125I]-iodo-cyanopindolol ligand binding assay; Experiments 1 and 4); settings: Table 37; compound concentration 30 μM; [125I]-iodo-cyanopindolol, rat lung membranes; Experiment 1; read-out: Binding Activity (30 μM)
T1 construct: from tissue; host or cells: rat lung membranes (SD male rats)
Description: Evaluation Test on Receptor Binding of the Compound in Rat Lung Membranes:
This experiment was carried out according to the method disclosed in Sugasawa et al., (Sugasawa, T. et al., J. Biol. Chem., 272, 21244-21252(1997)).
Preparation of Rat Lung Membranes
The air tube and blood vessels were removed from the lung excised from SD male rats (7-weeks old when used, purchased from Charles River Japan, Inc.), and the lung was chopped, and washed with ice-cold tris-saline buffer (10 mM Tris-HCl, 154 mM sodium chloride, pH 7.4). The lung was homogenized by PHYSCOTRON (maximum speed: 1 minute) in a buffer for homogenization (tris-saline buffer containing 1 mM ethylenediaminetetraacetate (EDTA), 1 mM 4-(2-aminoethyl)-benzenesulfonyl fluoride (AEBSF), 5 μg/ml aprotinin, 5 μg/ml leupeptin) under ice-cooling. The mixture was centrifuged at a low speed (1500×g, 20 minutes, 4° C.), and the supernatant was super-centrifuged (100000×g, 20 minutes, 4° C.). The pellets thus obtained were suspended in tris-saline buffer, and kept at −80° C. The concentration of protein was measured by a Protein Assay Kit manufactured by Bio-Rad using bovine serum albumin (BSA) as standard.
To each well of a protein-non-adsorbent round-bottom 96-well assay plate (purchased from IWAKI GLASS CO., LTD.) was added tris-saline buffer (200 μl) containing 1 nM [^125I]-iodo-cyanopindolol (purchased from Amarsham), 10 μM serotonin, 20 μM dl-propranol, 10 μM phentoramine, 1.1 mM ascorbic acid and 100 μg lung membranes, and the mixture was mixed well by pipetting, and the plate was incubated at 37° C. for 30 minutes. Test compounds were dissolved in 100% dimethylsulfoxide, and added to the plate in an amount of 2 μl (final concentration of DMSO: 1%). In order to obtain non-specific binding, L-threo-3-(3,4-dihydroxyphenyl)-N-[3-(4-fluorophenyl)propyl]-serinepyrrolidinamide was added at a final concentration of 100 μM instead of test compound. During this period, 0.3% polyethyleneimine (PEI)/tris-saline buffer (100 μl) was added to a multiscreen plate (96-well B-glassfiber, milipore Cat. No. MAFB NOB10) and the plate was incubated for more than 30 minutes. The plate was washed by vacuum filtration (by adding ice-cold tris-saline buffer (200 μl) and then vacuum filtration), and the reaction solution on the 96-well assay plate was washed by vacuum filtration onto the multiscreen plate for four times. The B-glassfiber paper filter at the bottom of the multiscreen plate was punched out, and the γ-ray amount of [^125I]-iodo-cyanopindolol being trapped onto the paper filter was measured as binding amount. The binding amount in the presence of DMSO (final concentration: 1%) was regarded as total binding, and the binding in the presence of L-threo-3-(3,4-dihydroxyphenyl) -N-[3-(4-fluorophenyl)-propyl]serinepyrrolidinamide was regarded as non-specific binding. The value which is calculated by subtracting non-specific binding from total binding is specific binding. The binding activity of the compound can be calculated by the following equation, and expressed in a ratio of inhibiting the specific binding of [^125I]-iodo-cyanopindorol to SMBS on rat lung membranes.
In the same manner to in Experiment 1, the receptor binding assay was carried out on the present compounds by using the rat lung membranes.

T1 sequence (A0A8I6A822 27-587): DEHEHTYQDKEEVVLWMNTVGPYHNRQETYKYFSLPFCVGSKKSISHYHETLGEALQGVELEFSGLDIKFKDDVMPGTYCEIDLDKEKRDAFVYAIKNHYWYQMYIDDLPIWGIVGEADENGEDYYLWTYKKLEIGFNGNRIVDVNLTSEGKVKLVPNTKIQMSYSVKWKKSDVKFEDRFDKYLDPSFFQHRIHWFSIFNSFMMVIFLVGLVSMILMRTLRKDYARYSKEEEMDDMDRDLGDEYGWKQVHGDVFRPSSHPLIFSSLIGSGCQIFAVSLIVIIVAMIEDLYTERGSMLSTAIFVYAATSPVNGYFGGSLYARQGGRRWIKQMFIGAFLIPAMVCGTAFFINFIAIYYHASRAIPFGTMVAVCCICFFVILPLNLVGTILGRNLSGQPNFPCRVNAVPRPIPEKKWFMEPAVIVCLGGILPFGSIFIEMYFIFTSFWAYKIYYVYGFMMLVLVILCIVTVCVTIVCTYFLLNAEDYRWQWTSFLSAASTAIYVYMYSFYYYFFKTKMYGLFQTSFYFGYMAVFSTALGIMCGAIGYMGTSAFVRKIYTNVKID

SMILES	inhibition at 30 µM
COc1ccc(-c2csc(=Nc3ccccc3)n2CCCN)cc1 [Example 9, N-[3-(3-Aminopropyl)-4-(4-methoxyphenyl)-thiazol-2(3H) -ylidene]aniline]	79%
NCCCn1c(-c2ccc(-c3ccccc3)cc2)csc1=Nc1ccccc1 [Example 11, N-[3-(3-Aminopropyl)-4-(1,1′-biphenyl-4-yl)thiazol-2(3H)-ylidene]aniline]	98.1%

same assay, conditions: Table 39; compound concentration 30 μM; [125I]-iodo-cyanopindolol, rat lung membranes; Experiment 1; read-out: Binding Activity (30 μM)

SMILES	inhibition at 30 µM
CNCCCn1c(-c2ccc(OC)cc2)csc1=Nc1ccccc1 [Example 152, N-{4-(4-Methoxyphenyl)-3-[3-(methylamino)propyl]thiazol-2(3H)-ylidene}aniline]	76.5%
CC(=O)NCCCn1c(-c2ccc(Br)cc2)csc1=Nc1ccccc1 [Example 153, N-{3-[4-(4-Bromophenyl)-2-phenyliminothiazol-3(2H)-yl]propyl}-acetamide]	89.7%
O=C(CO)NCCCn1c(-c2ccc(Br)cc2)csc1=Nc1ccccc1 [Example 169, N-{3-[4-(4-Bromophenyl)-2-(phenylimino)-thiazol-3(2H)-yl]propyl}-2-hydroxyacetamide]	58.6%
COC(=O)NCCCn1c(-c2ccc(OC)cc2)csc1=Nc1ccccc1 [Example 176, Methyl 3-[4-(4-methoxyphenyl)-2-(phenylimino)thiazol-3(2H)-yl]propyl-carbamate]	75.2%
NCCCn1c(-c2ccc(C(=O)O)cc2)csc1=Nc1ccccc1 [Example 185, 4-[3-(3-Aminopropyl)-2-(phenylimino)-2,3-dihydrothiazol-4-yl]-benzoic acid]	13.9%

same assay, conditions: Table 42; concentration tested 30 μM; rat lung membranes; Experiment 4; read-out: Binding Activity (30 μM)

SMILES	inhibition at 30 µM
CNC(=O)NCCn1c(-c2ccc(N3CCOCC3)cc2)csc1=Nc1ccc(F)cc1 [Example 214, N-Methyl-N′-{2-[2-[(4-fluorophenyl)imino]-4-[4-(morpholino)phenyl]-thiazol-3(2H)-yl]ethyl}urea]	99%
CCOC(=O)CNCCCn1c(-c2ccc(F)cc2)csc1=Nc1ccc(Cl)cc1OC [Example 215, Ethyl N-{3-[2-[(4-chloro-2-methoxyphenyl)imino]-4-(4-fluorophenyl)-thiazol-3(2H)-yl]propyl}glycinate]	109%
CCOC(=O)CCNCCCn1c(-c2ccc(F)cc2)csc1=Nc1ccc(Cl)cc1OC [Example 216, Ethyl N-{3-[2-[(4-chloro-2-methoxyphenylimino)]-4-(4-fluoro-phenyl)-thiazol-3 (2H)-yl]propyl}-β-alaninate]	112%
CN(C)C(=O)NCCCn1c(-c2ccc(N3CCOCC3)cc2)csc1=Nc1ccc(F)cc1 [Example 220, N′-{3-[2-[(4-Fluorophenyl)imino]-4-[4-(morpholino)phenyl]thiazol-3(2H)-yl]propyl}-N,N-dimethylurea]	101%
CCCCNC(=O)NCCCn1c(-c2ccc(N3CCOCC3)cc2)csc1=Nc1ccc(F)cc1 [Example 221, N-butyl-N′-{3-[2-[(4-fluorophenyl)imino]-4-[4-(morpholino)phenyl]-thiazol-3(2H)-yl]propyl}urea]	79%
O=C(NCCCn1c(-c2ccc(N3CCOCC3)cc2)csc1=Nc1ccc(F)cc1)c1ccccc1 [Example 222, N-{3-[2-[(4-Fluorophenyl)imino]-4-[4-(morpholino)phenyl]thiazol-3(2H)-yl]propyl}benzamide]	86%
CCOC(=O)CC(=O)NCCCn1c(-c2ccc(N3CCOCC3)cc2)cs/c1=N\c1ccc(F)cc1 [Example 239]	50%
CN(C)CC(=O)NCCCn1c(-c2ccc(N3CCOCC3)cc2)cs/c1=N\c1ccc(F)cc1 [Example 245]	96%
O=C(COc1ccccc1)NCCCn1c(-c2ccc(N3CCOCC3)cc2)cs/c1=N\c1ccc(F)cc1 [Example 246]	80%
CCOC(=O)NCCCn1c(-c2ccc(N3CCOCC3)cc2)cs/c1=N\c1ccc(F)cc1 [Example 250]	98%
CCS(=O)(=O)NCCCn1c(-c2ccc(N3CCOCC3)cc2)cs/c1=N\c1ccc(F)cc1 [Example 251]	61%
N=C(NCCCn1c(-c2ccc(N3CCOCC3)cc2)cs/c1=N\c1ccc(F)cc1)N1CCCCC1 [Example 257]	110%
CCNC(=O)NCCn1c(-c2ccc(N3CCOCC3)cc2)cs/c1=N\c1ccc(F)cc1 [Example 280]	99%
CCCCCCNC(=O)NCCCn1c(-c2ccc(N3CCOCC3)cc2)cs/c1=N\c1ccc(F)cc1 [Example 284]	77%
O=C(NCCCn1c(-c2ccc(N3CCOCC3)cc2)cs/c1=N\c1ccc(F)cc1)NC1CCCCC1 [Example 285]	35%
O=C(NCCCn1c(-c2ccc(N3CCOCC3)cc2)cs/c1=N\c1ccc(F)cc1)Nc1ccc(F)cc1 [Example 288]	34%
O=C(NCCCn1c(-c2ccc(N3CCOCC3)cc2)cs/c1=N\c1ccc(F)cc1)NCc1ccccc1 [Example 290]	98%
COc1ccc(NC(=O)NCCCn2c(-c3ccc(N4CCOCC4)cc3)cs/c2=N\c2ccc(F)cc2)cc1 [Example 291]	68%
CCNC(=O)NCCCCCn1c(-c2ccc(N3CCOCC3)cc2)cs/c1=N\c1ccc(F)cc1 [Example 295]	18%
CCNC(=O)NCCCn1c(-c2ccc(N3CCOCC3)cc2)cs/c1=N\c1ncccn1 [Example 297]	75%
CCNC(=O)NCCCn1c(-c2ccc(N3CCOCC3)cc2)cs/c1=N\c1ccc(OC)cn1 [Example 298]	101%

same assay, conditions: Table 43; concentration tested 30 μM; rat lung membranes; Experiment 4; read-out: Binding Activity (30 μM)

SMILES	inhibition at 30 µM
CCNC(=O)NCCCn1c(-c2ccc(N3CCOCC3)cc2)cs/c1=N\c1nccs1 [Example 299]	93%
CCNC(=O)NCCCn1c(CN(C)Cc2ccc(Cl)cc2)cs/c1=N\c1ccc(OC(F)(F)F)cc1 [Example 303]	23%
CCNC(=O)NCCCn1c(COCc2ccccc2)cs/c1=N\c1ccc(OC(F)(F)F)cc1 [Example 305]	13%
CCNC(=O)NCCCn1c(COCc2ccccc2)cs/c1=N\c1ccc(OC)cn1 [Example 307]	48%
CN(C)C(=O)NCCCn1c(-c2ccc3c(c2)OCO3)cs/c1=N\c1ccc(OC(F)(F)F)cc1 [Example 309]	100%
CCNC(=S)NCCCn1c(-c2ccc(N3CCOCC3)cc2)cs/c1=N\c1ccc(F)cc1 [Example 312]	112%
COCCNCCCn1c(-c2ccc(F)cc2)cs/c1=N\c1ccc(Cl)cc1OC [Example 315]	115%
COCCOCCNCCCn1c(-c2ccc(F)cc2)cs/c1=N\c1ccc(Cl)cc1OC [Example 316]	102%
O=C(O)CNCCCn1c(-c2ccc(N3CCOCC3)cc2)csc1=Nc1ccc(F)cc1 [Example 329, N-{3-[2-[(4-Fluorophenyl)imino]-4-[4-(morpholino)phenyl]thiazol-3(2H)-yl]propyl}glycine]	76%
CCNC(=O)CNCCCn1c(-c2ccc(N3CCOCC3)cc2)csc1=Nc1ccc(F)cc1 [Example 335, N^1-ethyl-N^2-{3-[2-[(4-fluorophenyl)imino]-4-[4-(morpholino)phenyl]-thiazol-3(2H)-yl]propyl}glycinamide]	101%
CN(C)C(=O)CNCCCn1c(-c2ccc(N3CCOCC3)cc2)cs/c1=N\c1ccc(F)cc1 [Example 342]	56%
CCN(CC)C(=O)CNCCCn1c(-c2ccc(N3CCOCC3)cc2)cs/c1=N\c1ccc(F)cc1 [Example 343]	107%
O=C(CNCCCn1c(-c2ccc(N3CCOCC3)cc2)cs/c1=N\c1ccc(F)cc1)NCCO [Example 344]	101%
CN(C)CCNC(=O)NCCCn1c(-c2ccc(N3CCOCC3)cc2)csc1=Nc1ccc(F)cc1 [Example 349, N-[2-(Dimethylamino)ethyl]-N′-{3-[2-[(4-fluorophenyl)imino]-4-[4-(morpholino)phenyl]thiazol-3(2H)-yl]propyl}urea]	100%

— US7396842B2, “Five-membered cyclic compounds” (Dianippon Sumitomo Pharma Co., Ltd., priority 2002, dated 2008)
